Article PMC9681850, “Structural basis of synthetic agonist activation of the nuclear receptor REV-ERB” (Nature Communications, 2022)
“And” between values parts separate entries of the source, which are not always exact repeats. Equal values may be shown once.

Columns and labels:
HepG2 cells = assay: cell viability by crystal violet staining; assay type: cell-based, human; conditions: for cell viability (Fig 2a source data): crystal violet, normalized to DMSO, single replicates
Protocol: Cellular viability was tested in two cell types, human hepatocarcinoma HepG2 cells and proliferating C2C12 mouse myoblast cells.
Data are presented as mean ± SEM. Source data are available as a Source Data file.
The human hepatocellular carcinoma cell line, HepG2 cells (ATCC HB-8065), were cultured in 10% FBS 1% L-Glu MEM at 37 °C in a humidified atmosphere of 5% CO2. Prior to RNA extraction cells were treated with either DMSO or REV-ERB agonist for 24 h. The C2C12 proliferating mouse myoblast cells (ATCC, CRL-1772) were cultured in 10% FBS DMEM at 37 °C in a humidified atmosphere of 5% CO2. Prior to RNA extraction cells were treated with either DMSO or REV-ERB agonist for 24 h. […]
[…] Media was removed, and cells were incubated with 0.5% crystal violet solution for 20 min at room temperature with mild agitation. Cells were washed four times with tap water before being air drying overnight. Cells were incubated in methanol for 20 min with mild agitation. Absorbance was read at 570 nm, and readings were normalized to vehicle (DMSO) treated cells.

[1] = test system: Bmal1 expression in liver; assay: Bmal1 expression in liver after i.p. administration; assay type: in vivo, C57Bl/6 J mice; conditions: mice, 50 mg/kg i.p., 12 h post administration, single animals
[2] = test system: 43 targets (GPCRs, ion channels, transporters, and other drug targets); assay: NIMH PDSP radioligand displacement panel; assay type: binding; conditions: of the 43 targets assessed
From the text: We assessed the specificity of STL1267 using both in house nuclear receptor Gal4-NR reporter assays and the NIMH Psychoactive Drug Screening Program (PDSP) assays. We assessed the specificity of STL1267 in the PDSP’s radioligand displacement assays, screening for binding to off-target GPCRs, ion channels, transporters, and other drug targets (Table S1). Of the 43 targets assessed in this panel, we observed no detectable binding in 41 of them. […] Additional assessment in serotonin transporter and kappa opioid receptor activity in a functional assay may be warranted to determine absolute specificity. […]
Receptor RLBA Ki Receptor activity
Suppl ementary Tabl e 1. Speci fi ci ty of STL1267. […]

GR = GR (Homo sapiens, UniProt P04150); assay: Gal4-UAS reporter assay for nuclear receptor specificity; assay type: cell-based; conditions: Gal4 DBD-NR, HEK293 cells, 10 µM
GR, sequence (P04150 524-777 limits assumed): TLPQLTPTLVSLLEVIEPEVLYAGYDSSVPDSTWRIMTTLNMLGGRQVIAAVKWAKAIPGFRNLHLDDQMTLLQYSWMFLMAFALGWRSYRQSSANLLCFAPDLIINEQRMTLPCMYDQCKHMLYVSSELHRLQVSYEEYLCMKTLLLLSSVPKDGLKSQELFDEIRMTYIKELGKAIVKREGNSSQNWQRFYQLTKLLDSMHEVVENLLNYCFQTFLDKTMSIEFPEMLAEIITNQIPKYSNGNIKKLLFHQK
From the text: (§1) We assessed the specificity of STL1267 using both in house nuclear receptor Gal4-NR reporter assays and the NIMH Psychoactive Drug Screening Program (PDSP) assays. We assessed the specificity of STL1267 in the PDSP’s radioligand displacement assays, screening for binding to off-target GPCRs, ion channels, transporters, and other drug targets (Table S1). Of the 43 targets assessed in this panel, we observed no detectable binding in 41 of them. […] Additional assessment in serotonin transporter and kappa opioid receptor activity in a functional assay may be warranted to determine absolute specificity.
(§2) Receptor RLBA Ki Receptor activity […]
(§3) HEK293 cells transfected with Gal4-UAS l uc i f eras e and […]

FXR = FXR (Homo sapiens, UniProt Q96RI1); assay: as above; assay type: cell-based; conditions: Gal4 DBD-NR, HEK293 cells, 10 µM
FXR, sequence (Q96RI1 262-486 limits assumed): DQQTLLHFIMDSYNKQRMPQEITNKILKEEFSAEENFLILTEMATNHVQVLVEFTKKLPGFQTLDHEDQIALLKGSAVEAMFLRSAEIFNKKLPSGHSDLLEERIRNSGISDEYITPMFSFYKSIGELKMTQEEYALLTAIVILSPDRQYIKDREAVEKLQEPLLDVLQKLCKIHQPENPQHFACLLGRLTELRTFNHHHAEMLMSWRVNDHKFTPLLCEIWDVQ
From the text: as §1, §2, §3

RXRα = RXRα (Homo sapiens, UniProt P19793); assay: as above; assay type: cell-based; conditions: Gal4 DBD-NR, HEK293 cells, 10 µM; RXRa
RXRα, sequence (P19793 227-462 limits assumed): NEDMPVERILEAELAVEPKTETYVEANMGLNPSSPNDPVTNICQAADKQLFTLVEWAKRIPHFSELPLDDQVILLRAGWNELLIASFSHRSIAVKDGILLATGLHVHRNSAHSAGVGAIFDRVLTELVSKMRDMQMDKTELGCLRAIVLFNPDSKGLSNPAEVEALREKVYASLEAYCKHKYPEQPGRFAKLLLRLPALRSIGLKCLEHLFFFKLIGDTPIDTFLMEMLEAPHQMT
From the text: as §1, §2, §3

[3] = target: T1, full length human REV-ERBα (Homo sapiens, UniProt P20393); assay: cell-based two-hybrid luciferase reporter assay (REV-ERBα-FL/GAL4-DBD + NCoR-Vp16, HEK UAS-luc cells); conditions: HEK293 UAS-luc cells
T1 construct: expressed in transfected cells; host or cells: HEK293 cells with stably integrated GAL4-UAS luciferase reporter
T1 sequence (P20393 whole entry, the tested form may be a part): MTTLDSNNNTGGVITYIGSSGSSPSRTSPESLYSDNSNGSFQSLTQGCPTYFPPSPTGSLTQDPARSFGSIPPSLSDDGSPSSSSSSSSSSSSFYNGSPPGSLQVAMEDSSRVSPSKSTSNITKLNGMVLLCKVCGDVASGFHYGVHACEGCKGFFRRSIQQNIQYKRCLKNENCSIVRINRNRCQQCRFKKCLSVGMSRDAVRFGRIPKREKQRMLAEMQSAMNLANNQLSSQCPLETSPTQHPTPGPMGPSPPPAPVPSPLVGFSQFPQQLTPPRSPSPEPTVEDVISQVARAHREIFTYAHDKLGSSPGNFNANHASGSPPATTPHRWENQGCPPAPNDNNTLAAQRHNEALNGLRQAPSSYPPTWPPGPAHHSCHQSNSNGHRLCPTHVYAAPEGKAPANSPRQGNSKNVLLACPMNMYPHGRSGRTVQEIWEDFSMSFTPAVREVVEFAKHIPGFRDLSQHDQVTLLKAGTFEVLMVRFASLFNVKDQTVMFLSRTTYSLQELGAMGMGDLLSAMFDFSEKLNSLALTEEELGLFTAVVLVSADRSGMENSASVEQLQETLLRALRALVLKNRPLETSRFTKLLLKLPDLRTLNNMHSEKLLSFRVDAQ
T1 sequence (O75376 whole entry partner, the tested form may be a part): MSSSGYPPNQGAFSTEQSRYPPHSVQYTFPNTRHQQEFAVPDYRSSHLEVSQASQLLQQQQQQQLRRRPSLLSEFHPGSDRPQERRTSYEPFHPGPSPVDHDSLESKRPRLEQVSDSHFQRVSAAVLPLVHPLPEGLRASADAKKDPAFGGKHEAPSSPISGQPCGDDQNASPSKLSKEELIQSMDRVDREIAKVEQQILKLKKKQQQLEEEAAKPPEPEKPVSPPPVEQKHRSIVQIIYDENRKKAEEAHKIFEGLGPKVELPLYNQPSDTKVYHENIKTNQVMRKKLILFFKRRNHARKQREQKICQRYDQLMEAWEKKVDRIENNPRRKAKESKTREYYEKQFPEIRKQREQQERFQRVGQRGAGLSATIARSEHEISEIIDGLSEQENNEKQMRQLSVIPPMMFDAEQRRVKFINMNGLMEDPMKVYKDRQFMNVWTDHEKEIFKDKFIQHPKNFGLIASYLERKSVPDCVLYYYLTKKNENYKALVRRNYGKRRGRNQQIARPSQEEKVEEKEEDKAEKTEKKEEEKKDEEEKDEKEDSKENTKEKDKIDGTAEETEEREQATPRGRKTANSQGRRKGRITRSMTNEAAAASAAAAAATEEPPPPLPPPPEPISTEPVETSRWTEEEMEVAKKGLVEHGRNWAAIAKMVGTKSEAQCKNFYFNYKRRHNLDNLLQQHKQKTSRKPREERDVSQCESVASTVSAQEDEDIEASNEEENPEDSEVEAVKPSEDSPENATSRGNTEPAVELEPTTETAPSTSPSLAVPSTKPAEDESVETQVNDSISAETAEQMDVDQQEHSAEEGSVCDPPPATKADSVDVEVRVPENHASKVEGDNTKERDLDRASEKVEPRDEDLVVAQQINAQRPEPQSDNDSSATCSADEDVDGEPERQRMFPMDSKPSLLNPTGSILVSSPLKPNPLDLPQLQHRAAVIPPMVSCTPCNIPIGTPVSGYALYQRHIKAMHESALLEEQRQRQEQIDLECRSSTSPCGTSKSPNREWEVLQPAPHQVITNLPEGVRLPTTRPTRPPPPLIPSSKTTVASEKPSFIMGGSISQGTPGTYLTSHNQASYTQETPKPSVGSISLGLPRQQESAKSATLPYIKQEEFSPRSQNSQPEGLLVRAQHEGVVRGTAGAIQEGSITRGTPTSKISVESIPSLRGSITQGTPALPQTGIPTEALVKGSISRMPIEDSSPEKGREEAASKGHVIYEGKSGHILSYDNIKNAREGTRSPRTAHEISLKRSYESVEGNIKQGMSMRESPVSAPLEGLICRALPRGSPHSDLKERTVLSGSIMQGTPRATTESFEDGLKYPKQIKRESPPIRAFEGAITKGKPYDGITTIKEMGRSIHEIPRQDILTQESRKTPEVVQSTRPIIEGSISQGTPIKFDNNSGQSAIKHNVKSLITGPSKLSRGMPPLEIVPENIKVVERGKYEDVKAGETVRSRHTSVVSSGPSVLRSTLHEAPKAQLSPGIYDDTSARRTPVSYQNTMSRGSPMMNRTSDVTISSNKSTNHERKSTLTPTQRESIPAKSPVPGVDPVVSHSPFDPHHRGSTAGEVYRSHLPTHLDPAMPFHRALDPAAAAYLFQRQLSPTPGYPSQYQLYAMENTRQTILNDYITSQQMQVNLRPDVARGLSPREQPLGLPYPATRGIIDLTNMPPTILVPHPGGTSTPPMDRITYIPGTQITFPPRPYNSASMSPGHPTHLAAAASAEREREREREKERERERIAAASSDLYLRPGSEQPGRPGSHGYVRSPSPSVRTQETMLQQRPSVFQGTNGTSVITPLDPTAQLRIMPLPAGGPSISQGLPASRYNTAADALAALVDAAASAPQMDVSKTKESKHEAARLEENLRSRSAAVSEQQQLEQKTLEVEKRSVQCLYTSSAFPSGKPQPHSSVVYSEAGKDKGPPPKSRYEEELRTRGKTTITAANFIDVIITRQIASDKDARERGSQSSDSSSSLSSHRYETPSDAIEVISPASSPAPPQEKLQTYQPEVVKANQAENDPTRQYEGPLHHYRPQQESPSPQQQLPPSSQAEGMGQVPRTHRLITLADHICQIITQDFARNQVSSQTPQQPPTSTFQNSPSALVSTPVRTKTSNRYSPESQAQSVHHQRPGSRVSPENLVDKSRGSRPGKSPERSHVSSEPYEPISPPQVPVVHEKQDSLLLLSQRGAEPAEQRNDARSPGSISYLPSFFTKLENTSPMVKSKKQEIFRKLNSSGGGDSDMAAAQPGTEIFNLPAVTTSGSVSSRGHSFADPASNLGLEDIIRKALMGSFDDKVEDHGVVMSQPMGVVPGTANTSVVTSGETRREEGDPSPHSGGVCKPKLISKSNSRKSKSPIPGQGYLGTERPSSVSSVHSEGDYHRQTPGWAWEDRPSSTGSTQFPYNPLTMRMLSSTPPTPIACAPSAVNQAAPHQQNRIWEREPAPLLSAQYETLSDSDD

PXR = PXR (Homo sapiens, UniProt O75469); assay: PXR assay; assay type: cell-based; conditions: relative to 5μM rifampicin
PXR, sequence (O75469 whole entry): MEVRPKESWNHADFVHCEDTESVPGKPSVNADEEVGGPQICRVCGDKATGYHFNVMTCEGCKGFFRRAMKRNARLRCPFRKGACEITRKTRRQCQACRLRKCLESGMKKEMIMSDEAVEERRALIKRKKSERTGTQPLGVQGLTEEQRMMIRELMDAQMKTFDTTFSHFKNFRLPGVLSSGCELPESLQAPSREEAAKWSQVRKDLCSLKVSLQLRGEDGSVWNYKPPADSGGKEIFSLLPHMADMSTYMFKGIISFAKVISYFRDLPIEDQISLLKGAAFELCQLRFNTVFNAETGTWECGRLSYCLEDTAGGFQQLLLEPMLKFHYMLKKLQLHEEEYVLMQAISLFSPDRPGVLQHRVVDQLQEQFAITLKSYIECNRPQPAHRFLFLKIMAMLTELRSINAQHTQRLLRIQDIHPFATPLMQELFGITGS
From the text: We thank the reviewers for the constructive comments, and we have responded to each of the […]
Overall, this is a commendable structure-function study on the transcriptional repressor, REV-ERBα. It includes the identification of an agonist that belongs to the non-heme class of small ligands. The study combines cell-based and in vitro, in vivo, and crystallographic analyses of the ligand-receptor molecular complex.
However, as a spring-board for therapeutic drug discovery, there are a few additional issues that may need to be clarified.
1. In the HEK293 2-hybrid assay, the ERB agonists are described as activators of transcription.
Perhaps, they would be more appropriately described as 'repressors'.
We have updated the manuscript to clarify this issue. In the original manuscript, we used the following to describe how the 2-hybrid assay switches agonists from repressors to activators to allow for better resolution of activity, “This format of the assay essentially functions as a mammalian 2-hybrid assay and detects REVERB agonists as activators of transcription effectively enhancing the sensitivity of such an assay from the typical one hybrid system that detects enhancement of transcriptional repression.” […]

number of targets with no detectable binding [2]: 41
activity (GR): did not detect activity
activity (FXR): did not detect activity
activity (RXRα): did not detect activity
maximal efficacy for recruitment of NCoR-VP16 vs. SR9009 [3]: ~ 8 fold
EC50 ([3]; 24 h, read-out: EC50, recruitment of NCoR-Vp16): 1800 nM
activity at PXR, of the activity of 5μM rifampicin (PXR): 18%
SMILES: Clc1nnc2ccc(Oc3ccccc3-c3ccccc3)nn12 [STL1267]
cell viability (Fig 2a source data) (HepG2 cells; HepG2, 1uM): 100.259 and 103.289 and 114.098 and 100.562 and 101.976 and 107.785 and 108.29 and 110.916
cell viability (Fig 2a source data) (HepG2 cells; HepG2, 2uM): 94.905 and 99.6528 and 117.735 and 107.532 and 113.391 and 106.219 and 106.421 and 103.794
cell viability (Fig 2a source data) (HepG2 cells; HepG2, 5uM): 93.8443 and 82.581 and 107.936 and 102.38 and 83.3891 and 98.2385 and 86.8237 and 96.4202
cell viability (Fig 2a source data) (HepG2 cells; HepG2, 10uM): 88.9955 and 75.7624 and 90.8643 and 100.208 and 77.7322 and 91.3189 and 89.0965 and 88.0359
cell viability (Fig 2a source data) (HepG2 cells; HepG2, 20uM): 83.6922 and 74.4997 and 94.7535 and 87.2782 and 90.0057 and 93.8948 and 95.4101 and 87.8338
effect on cell viability (HepG2 cells; HepG2 cells, up to the maximum dose examined (20 μM)): no adverse effects on cell viability
Bmal1 expression in liver [1]: effectively suppressed Bmal1 expression and 0.9475 and 0.6115 and 0.4288 and 0.62 and 0.8061 and 0.4099
